Where only a bound is given, the exact number is not on record here.

In patent publication US20240190849A1, “AMINOPYRIMIDINE COMPOUNDS AND METHODS OF THEIR USE” (TYRA BIOSCIENCES, INC., priority 2021, published 2024) one finds IC50 and Kd data, which are given here for 17 molecules.

Assay [1] relates to UM-UC-14 (Bladder Cancer), FGFR3(S249C). The assay can be described thus: Cancer cell viability assay (Cell Titer-Glo), UM-UC-14. In kind it is cell-based. The conditions noted are these: UMUC14, UM-UC-14 cells, 72 hours. The source says: (§1) RT112/84, UM-UC-14, SNU-16 and KG-1 Cancer Cell Line Cell Viability Assays
(§2) To detect the change of intracellular ATP by Cell Titer-Glo@ and to evaluate the inhibitory effect of the compounds on cancer cell lines by determining the in vitro IC50 value of the compounds.
(§3) Cell Titer-Glo@ 2.0 Luminescent cell viability assay reagent was purchased from Promega (Madison, WI). RT112/84, SNU-16, and KG-1 cell lines were purchased from American Type Culture Collection (Manassas, VA). UM-UC-14 cell line was purchased from Sigma (St. Louis, MO). RT112/84, UM-UC-14, SNU-16, and KG-1 cells were cultured in RPMI1640 media supplemented with 10% fetal bovine serum. Cultures were maintained at 37° C. in a humidified atmosphere of 5% CO2 and 95% air.
(§4) Cell Viability Assay Procedure: Cells were plated in 96-well clear bottom/white plates (Corning #3903) at 10,000 cells/well in 100 μl of media, incubated overnight. The next day, test compound DMSO stock solutions were made at 10 mM and 2 μM final concentration. Compounds were then added to cells in a 9-dose, […] dilution series starting at 30 μM with an HP 300e Digital Dispenser (each dose was applied in triplicate). DMSO was backfilled to each well up to 301 nL total volume of test compound+DMSO, and a total of 301 nL DMSO was added to a control/no test compound well in triplicate. The cells in cell culture plates were incubated with the compounds at 37° C. and 5% CO2 for 72 hours. Then 50 μl of Cell Titer Glo 2.0 reagent was added to each well of the cell culture plates. The contents were covered from light and mixed on an orbital shaker at room temperature for 10 min. Luminescence was recorded by a Synergy H1 Microplate Reader (Biotek, Winooski, VT). Cells were assessed as a percentage of DMSO only treated control cells. Curves were plotted and IC50 values were calculated using the GraphPad Prism 8 program based on a sigmoidal dose-response equation (4 parameter).

For another assay, the target named is T1, FGFR1 (Homo sapiens, UniProt P11362).
T1 construct: made in house; host or cells: E. coli derived from BL21, infected with T7 phage
T1 sequence (P11362 22-822): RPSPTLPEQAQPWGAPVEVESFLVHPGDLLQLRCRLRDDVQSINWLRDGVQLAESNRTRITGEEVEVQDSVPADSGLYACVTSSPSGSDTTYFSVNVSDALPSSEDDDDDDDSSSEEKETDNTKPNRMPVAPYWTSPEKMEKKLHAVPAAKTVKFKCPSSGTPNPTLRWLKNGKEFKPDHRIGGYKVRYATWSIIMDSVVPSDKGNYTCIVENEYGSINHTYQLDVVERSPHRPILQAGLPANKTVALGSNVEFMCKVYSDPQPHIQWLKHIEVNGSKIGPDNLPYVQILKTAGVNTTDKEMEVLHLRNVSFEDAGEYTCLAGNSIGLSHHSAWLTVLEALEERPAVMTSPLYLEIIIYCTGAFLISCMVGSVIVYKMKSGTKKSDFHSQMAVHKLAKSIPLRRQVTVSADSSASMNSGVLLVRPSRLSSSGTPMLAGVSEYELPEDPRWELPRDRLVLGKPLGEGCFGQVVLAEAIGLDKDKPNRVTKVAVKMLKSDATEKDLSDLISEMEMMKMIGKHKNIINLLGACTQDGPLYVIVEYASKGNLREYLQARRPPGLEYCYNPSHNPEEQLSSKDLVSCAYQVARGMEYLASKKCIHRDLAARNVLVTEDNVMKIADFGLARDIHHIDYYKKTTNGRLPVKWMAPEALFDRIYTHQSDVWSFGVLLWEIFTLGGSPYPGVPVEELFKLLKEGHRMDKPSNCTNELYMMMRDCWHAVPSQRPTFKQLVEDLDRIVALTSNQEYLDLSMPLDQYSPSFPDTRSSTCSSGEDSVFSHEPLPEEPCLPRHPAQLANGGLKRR
Briefly: Kinase binding assay (kinase-tagged T7 phage, affinity beads, qPCR readout), FGFR1. The conditions noted are these: FGFR binding data. The gist of the method: (§5)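 Phage lysate kinase + liganded magnetic beads + compound, 11-pt 3-fold series, 0.9% DMSO; 1 h RT shaking. Wash, elute 30 min with 0.5 μM non-biotinylated ligand; qPCR readout. Hill fit, slope −1 → Kd.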

The target in another assay is T2, FGFR2 (Homo sapiens, UniProt P21802).
T2 construct: made in house; host or cells: E. coli derived from BL21, infected with T7 phage
T2 sequence (P21802 22-821): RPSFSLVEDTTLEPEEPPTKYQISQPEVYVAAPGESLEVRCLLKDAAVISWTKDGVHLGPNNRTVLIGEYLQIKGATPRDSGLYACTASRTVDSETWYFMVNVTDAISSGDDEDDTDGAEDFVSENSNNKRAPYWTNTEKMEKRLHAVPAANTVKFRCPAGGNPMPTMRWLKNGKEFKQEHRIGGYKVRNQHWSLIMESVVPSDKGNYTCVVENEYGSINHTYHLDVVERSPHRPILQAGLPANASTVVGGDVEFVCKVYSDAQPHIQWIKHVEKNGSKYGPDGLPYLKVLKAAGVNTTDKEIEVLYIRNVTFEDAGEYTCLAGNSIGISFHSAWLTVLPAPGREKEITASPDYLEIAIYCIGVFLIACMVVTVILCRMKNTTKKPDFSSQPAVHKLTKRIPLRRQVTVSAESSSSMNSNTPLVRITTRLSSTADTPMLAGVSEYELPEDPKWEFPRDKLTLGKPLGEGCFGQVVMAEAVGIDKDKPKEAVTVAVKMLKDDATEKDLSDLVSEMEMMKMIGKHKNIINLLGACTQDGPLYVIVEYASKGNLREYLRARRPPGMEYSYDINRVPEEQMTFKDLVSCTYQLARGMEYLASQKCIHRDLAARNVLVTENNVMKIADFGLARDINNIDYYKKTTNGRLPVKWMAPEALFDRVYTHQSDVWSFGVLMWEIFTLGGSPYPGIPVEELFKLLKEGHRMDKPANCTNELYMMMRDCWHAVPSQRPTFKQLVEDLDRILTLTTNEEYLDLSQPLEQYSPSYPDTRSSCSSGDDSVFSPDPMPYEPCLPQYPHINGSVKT
The assay can be described thus: Kinase binding assay (kinase-tagged T7 phage, affinity beads, qPCR readout), FGFR2. The conditions noted are these: FGFR binding data. An outline of the steps: as §5
(In general: In qPCR the cycle at which signal appears reflects the starting amount.)

In another assay the target is T3, FGFR3 (Homo sapiens, UniProt P22607).
T3 construct: made in house; host or cells: E. coli derived from BL21, infected with T7 phage
T3 sequence (P22607 23-806): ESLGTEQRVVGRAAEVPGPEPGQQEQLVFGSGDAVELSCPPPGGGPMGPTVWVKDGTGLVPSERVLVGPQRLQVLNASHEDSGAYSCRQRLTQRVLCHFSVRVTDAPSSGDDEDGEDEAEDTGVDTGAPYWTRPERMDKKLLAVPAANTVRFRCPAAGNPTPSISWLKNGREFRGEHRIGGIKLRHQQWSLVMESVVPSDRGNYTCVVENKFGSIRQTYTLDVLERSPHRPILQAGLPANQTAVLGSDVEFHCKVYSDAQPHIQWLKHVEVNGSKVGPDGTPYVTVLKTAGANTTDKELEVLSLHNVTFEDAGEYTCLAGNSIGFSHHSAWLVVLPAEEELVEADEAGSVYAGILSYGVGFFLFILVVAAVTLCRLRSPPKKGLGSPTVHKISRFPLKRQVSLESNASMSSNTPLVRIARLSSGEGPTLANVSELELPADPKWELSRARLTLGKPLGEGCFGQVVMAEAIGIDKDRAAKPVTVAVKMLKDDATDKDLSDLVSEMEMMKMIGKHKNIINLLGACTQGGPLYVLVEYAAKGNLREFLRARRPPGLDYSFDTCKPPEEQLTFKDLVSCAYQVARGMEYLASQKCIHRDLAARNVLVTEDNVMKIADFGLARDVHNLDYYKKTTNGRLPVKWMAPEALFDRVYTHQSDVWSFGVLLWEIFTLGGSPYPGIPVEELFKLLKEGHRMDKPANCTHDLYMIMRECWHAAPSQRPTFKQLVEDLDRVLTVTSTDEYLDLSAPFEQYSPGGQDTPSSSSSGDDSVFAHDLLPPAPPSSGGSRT
The assay can be described thus: Kinase binding assay (kinase-tagged T7 phage, affinity beads, qPCR readout), FGFR3. The conditions noted are these: FGFR binding data. An outline of the steps:
as §5

The next assay deals with T4, FGFR3 (V555M) (Homo sapiens, UniProt P22607, V555M).
T4 construct: made in house; host or cells: E. coli derived from BL21, infected with T7 phage
T4 sequence (P22607 23-806 V555M): as the sequence (P22607 23-806) above, with V533M counted along it
The assay can be described thus: Kinase binding assay (kinase-tagged T7 phage, affinity beads, qPCR readout), FGFR3 (V555M). The conditions noted are these: FGFR binding data. The gist of the method:
as §5

Assay [2] concerns SNU-16 (Gastric Carcinoma), FGFR2 amplification. The assay can be described thus: Cancer cell viability assay (Cell Titer-Glo), SNU-16. In kind it is cell-based. Particulars: Homo sapiens, SNU-16 cells, 72 hours, read-out: SNU16 FGFR2 (IC50 nM).
Source text: as §1, §2, §3, §4
A general note: ATP-based viability assays read luminescence as a measure of living cells.

One may read the IC50 as the concentration at which inhibition is half-maximal. For `C=CC(=O)Nc1ccc2c(-c3nc(Nc4cnc5ccnn5c4)ncc3Cl)cn(C)c2c1` [Example 43, N-[3-[5-chloro-2-(pyrazolo[1,5-a]pyrimidin-6-ylamino)pyrimidin-4-yl]-1-methyl-indol-6-yl]prop-2-enamide], the IC50 in assay [1] fell in the range of 100 to 250 nM.

For orientation: Kd means the free concentration of one partner at which half of the binding sites on the other are occupied at equilibrium, for simple one-to-one binding. With `C=CC(=O)Nc1ccc2c(c1)c(C)nn2-c1nc(Nc2ccnn2C)ncc1F` [Example 76, N-[1-[5-fluoro-2-[(2-methylpyrazol-3-yl)amino]pyrimidin-4-yl]-3-methyl-indazol-5-yl]prop-2-enamide], the Kd at FGFR1 is more than 1000 nM; at FGFR2 it was 250 to 1000 nM; at FGFR3, 250 to 1000 nM; at FGFR3 (V555M) it was more than 1000 nM. Besides, the IC50 in assay [1] was 250 to 1000 nM.

With `C=CC(=O)Nc1ccc2c(c1)c(C)nn2-c1nc(Nc2ccnn2C)ncc1C` [Example 77, N-[3-methyl-1-[5-methyl-2-[(2-methylpyrazol-3-yl)amino]pyrimidin-4-yl]indazol-5-yl]prop-2-enamide], the Kd on FGFR1 was more than 1000 nM; on FGFR2, more than 1000 nM; on FGFR3 it was 250 to 1000 nM; at FGFR3 (V555M) it was 250 to 1000 nM. Further, the IC50 in assay [1] is more than 1000 nM.

For `C=CC(=O)Nc1cnc2c(c1)c(C)cn2-c1nc(Nc2ccnn2C)ncc1F` [Example 80, N-[1-[5-fluoro-2-[(2-methylpyrazol-3-yl)amino]pyrimidin-4-yl]-3-methyl-pyrrolo[2,3-b]pyridin-5-yl]prop-2-enamide], the Kd on FGFR1, at FGFR2, at FGFR3 and at FGFR3 (V555M) was 0.1 to 100 nM throughout. Moreover, the IC50 in assay [1] was in the range of 0.1 to 100 nM.

Regarding `C=CC(=O)Nc1ccc2c(c1)c(C)cn2-c1nc(Nc2cnn(CCO)c2)ncc1Cl` [Example 89, N-[1-[5-chloro-2-[[1-(2-hydroxyethyl)pyrazol-4-yl]amino]pyrimidin-4-yl]-3-methyl-indol-5-yl]prop-2-enamide], the equilibrium dissociation constant (Kd) at FGFR1, at FGFR2, at FGFR3 and on FGFR3 (V555M) was 0.1 to 100 nM in each case. The IC50 in assay [1] and in assay [2] was 0.1 to 100 nM throughout.

As to `C=CC(=O)Nc1ccc2c(c1)c(C)cn2-c1nc(Nc2cnn(CCO)c2)ncc1F` [Example 90, N-[1-[5-fluoro-2-[[1-(2-hydroxyethyl)pyrazol-4-yl]amino]pyrimidin-4-yl]-3-methyl-indol-5-yl]prop-2-enamide], the equilibrium dissociation constant (Kd) at FGFR1, on FGFR2, on FGFR3 and on FGFR3 (V555M) was 0.1 to 100 nM throughout. Also, the IC50 in assay [1] and in assay [2] was 0.1 to 100 nM throughout.

Take `C=CC(=O)Nc1ccc2c(c1)c(C)cn2-c1nc(Nc2cn(CCO)nc2C)ncc1F` [Example 176, N-[1-[5-fluoro-2-[[1-(2-hydroxyethyl)-3-methyl-pyrazol-4-yl]amino]pyrimidin-4-yl]-3-methyl-indol-5-yl]prop-2-enamide]: the Kd at FGFR1, on FGFR2, on FGFR3 and at FGFR3 (V555M) was 0.1 to 100 nM in each case. For the same molecule, the IC50 in assay [2] was 0.1 to 100 nM.

In the case of `C=CC(=O)Nc1ccc2c(-c3ccnc(Nc4cnn(C5CC5)c4)n3)cn(C)c2c1` [Example 178, N-[3-[2-[(1-cyclopropylpyrazol-4-yl)amino]pyrimidin-4-yl]-1-methyl-indol-6-yl]prop-2-enamide], the Kd on FGFR1, on FGFR2, at FGFR3 and on FGFR3 (V555M) was 0.1 to 100 nM in each case. Also, in assay [2], the IC50 lay in the range of 0.1 to 100 nM.

As for `Cc1nn(C)cc1Nc1ncc(Cl)c(-n2cc(C)c3cc(NC(=O)/C=C/CN(C)C)cnc32)n1` [Example 180, (E)-N-[1-[5-chloro-2-[(1,3-dimethylpyrazol-4-yl)amino]pyrimidin-4-yl]-3-methyl-pyrrolo[2,3-b]pyridin-5-yl]-4-(dimethylamino)but-2-enamide], the Kd at FGFR1 lay within 100 to 250 nM; on FGFR2 it was 0.1 to 100 nM; on FGFR3, 0.1 to 100 nM; at FGFR3 (V555M), 0.1 to 100 nM. For the same molecule, the IC50 in assay [2] fell in the range of 0.1 to 100 nM.

Take `C=CC(=O)Nc1ccc2c(c1)c(C)cn2-c1nc(Nc2cn(CC(C)(C)O)nc2C)ncc1F` [Example 182, N-[1-[5-fluoro-2-[[1-(2-hydroxy-2-methyl-propyl)-3-methyl-pyrazol-4-yl]amino]pyrimidin-4-yl]-3-methyl-indol-5-yl]prop-2-enamide]: the Kd on FGFR1, on FGFR2, at FGFR3 and at FGFR3 (V555M) was 0.1 to 100 nM throughout. Besides, the IC50 in assay [2] is 0.1 to 100 nM.

For the molecule `C=CC(=O)Nc1ccc2c(c1)c(C)cn2-c1nc(Nc2cnn(CC(C)(C)O)c2C)ncc1F` [Example 183, N-[1-[5-fluoro-2-[[1-(2-hydroxy-2-methyl-propyl)-5-methyl-pyrazol-4-yl]amino]pyrimidin-4-yl]-3-methyl-indol-5-yl]prop-2-enamide], the Kd on FGFR1, at FGFR2, at FGFR3 and at FGFR3 (V555M) was 0.1 to 100 nM each time. The IC50 in assay [2] is 0.1 to 100 nM.

Regarding `C=CC(=O)Nc1ccc2c(-c3ccnc(Nc4cnn(C(F)(F)F)c4)n3)cn(C)c2c1` [Example 184, N-[1-methyl-3-[2-[[1-(trifluoromethyl)pyrazol-4-yl]amino]pyrimidin-4-yl]indol-6-yl]prop-2-enamide], the Kd at FGFR1 is 250 to 1000 nM; on FGFR2, 0.1 to 100 nM; on FGFR3, 0.1 to 100 nM; on FGFR3 (V555M) it was 0.1 to 100 nM. Further, the IC50 in assay [1] and in assay [2] was 0.1 to 100 nM each time.

With `C=CC(=O)Nc1ccc2c(-c3ccnc(Nc4cnn(C)c4)n3)cn(C)c2c1` [Example 201, N-[3-[2-[(1-methylpyrazol-4-yl)amino]pyrimidin-4-yl]-1-methyl-indol-6-yl]prop-2-enamide], the Kd on FGFR1, on FGFR2, on FGFR3 and on FGFR3 (V555M) was 0.1 to 100 nM in each case. The IC50 in assay [2] lay within 0.1 to 100 nM.

With `C=CC(=O)Nc1ccc2c(c1)c(C)cn2-c1nc(Nc2cnn3c2CCC3)ncc1F` [Example 207, N-[1-[2-(5,6-dihydro-4H-pyrrolo[1,2-b]pyrazol-3-ylamino)-5-fluoro-pyrimidin-4-yl]-3-methyl-indol-5-yl]prop-2-enamide], the Kd at FGFR1, at FGFR2, on FGFR3 and on FGFR3 (V555M) was 0.1 to 100 nM each time. Also, the IC50 in assay [1] fell in the range of 0.1 to 100 nM.

Take `C=CC(=O)Nc1ccc2c(c1)c(C)cn2-c1nc(Nc2cnn(C3CCOCC3)c2)ncc1F` [Example 208, N-[1-[5-fluoro-2-[(1-tetrahydropyran-4-ylpyrazol-4-yl)amino]pyrimidin-4-yl]-3-methyl-indol-5-yl]prop-2-enamide]: the Kd at FGFR1, at FGFR2, at FGFR3 and on FGFR3 (V555M) was 0.1 to 100 nM each time. In assay [2], the IC50 was in the range of 0.1 to 100 nM.

With `C=CC(=O)Nc1ccc2c(c1)c(C)cn2-c1nc(Nc2cn(C[C@@H](C)O)nc2C)ncc1F` [Example 214, N-[1-[5-fluoro-2-[[1-[(2R)-2-hydroxypropyl]-3-methyl-pyrazol-4-yl]amino]pyrimidin-4-yl]-3-methyl-indol-5-yl]prop-2-enamide], the Kd on FGFR1, on FGFR2, at FGFR3 and at FGFR3 (V555M) was 0.1 to 100 nM each time. Besides, the IC50 in assay [2] was in the range of 0.1 to 100 nM.

With `C=CC(=O)Nc1ccc2c(c1)c(C)cn2-c1nc(Nc2cnn(C3CCOC3)c2)ncc1F` (stereo not drawn) [Example 215, N-[1-[5-fluoro-2-[(1-tetrahydrofuran-3-ylpyrazol-4-yl)amino]pyrimidin-4-yl]-3-methyl-indol-5-yl]prop-2-enamide], the Kd at FGFR1, on FGFR2, at FGFR3 and on FGFR3 (V555M) was 0.1 to 100 nM in each case. Moreover, the half-maximal inhibitory concentration (IC50) in assay [2] was in the range of 0.1 to 100 nM.
